Experimental data as given in patent US6737383B1, “Herbicidal oxadiazolidines” (priority 1999, dated 2004).

What was measured:
[1] = test system: bedstraw; assay: Test B pre/postemergence bedstraw; type: in vivo, Galium aparine; conditions: for Bedstraw plant response rating: scale of 0 to 10 where 0 is no effect and 10 is complete control
In short: (§1)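 Herbicidal effect was estimated by eye on a ten-point control scale after plants spent twelve to sixteen days in a greenhouse following soil or foliar treatment. Foliar sprays targeted plants at one to four leaves; all doses were formulated in a non-phytotoxic solvent with surfactant.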

[2] = test system: blackgrass; assay: Test B pre/postemergence blackgrass; type: in vivo, Alopecurus myosuroides
In short: as §1

[3] = test system: surinam grass; assay: Test B pre/postemergence surinam grass; type: in vivo, Brachiaria decumbens
In short: as §1

[4] = test system: cocklebur; assay: Test B pre/postemergence cocklebur; type: in vivo, Xanthium strumarium
In short: as §1

[5] = test system: corn; assay: Test B pre/postemergence corn; type: in vivo, Zea mays
In short: as §1

[6] = test system: crabgrass; assay: Test B pre/postemergence crabgrass; type: in vivo, Digitaria sanguinalis
In short: as §1

[7] = test system: giant foxtail; assay: Test B pre/postemergence giant foxtail; type: in vivo, Setaria faberii
In short: as §1

[8] = test system: morningglory; assay: Test B pre/postemergence morningglory; type: in vivo, Ipomoea hederacea
In short: as §1

[9] = test system: pigweed; assay: Test B pre/postemergence pigweed; type: in vivo, Amaranthus retroflexus
In short: as §1

[10] = test system: rape; assay: Test B pre/postemergence rape; type: in vivo, Brassica napus
In short: as §1

[11] = test system: soybean; assay: Test B pre/postemergence soybean; type: in vivo, Glycine max
In short: as §1

[12] = test system: sugar beet; assay: Test B pre/postemergence sugar beet; type: in vivo, Beta vulgaris
In short: as §1

[13] = test system: velvetleaf; assay: Test B pre/postemergence velvetleaf; type: in vivo, Abutilon theophrasti
In short: as §1

[14] = test system: wheat; assay: Test B pre/postemergence wheat; type: in vivo, Triticum aestivum
In short: as §1

[15] = test system: wild oat; assay: Test B pre/postemergence wild oat; type: in vivo, Avena fatua
In short: as §1

[16] = test system: purple nutsedge; assay: Test B pre/postemergence purple nutsedge; type: in vivo, Cyperus rotundus
In short: as §1

[17] = test system: rice; assay: Test B flood test rice; type: in vivo, Oryza sativa
In short: (§2)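 Each value is a visual injury score relative to controls, with 10 meaning complete control and 0 no effect. Evaluation took place twelve to sixteen days after the 2-leaf-stage plants were treated and kept in the greenhouse.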

[18] = test system: smallflower flatsedge; assay: Test B flood test smallflower flatsedge; type: in vivo, Cyperus difformis
In short: as §2

[19] = test system: duck salad; assay: Test B flood test duck salad; type: in vivo, Heteranthera limosa
In short: as §2

[20] = test system: bamyardgrass; assay: Test B flood test barnyardgrass; type: in vivo, Echinochloa crus-galli
In short: as §2

[21] = Preemergence, Rate 62 g/ha, scale of 0 to 10 where 0 is no effect and 10 is complete control
[22] = Preemergence, Rate 250 g/ha, scale of 0 to 10 where 0 is no effect and 10 is complete control
[23] = Preemergence, Rate 500 g/ha, scale of 0 to 10 where 0 is no effect and 10 is complete control
[24] = Rate 62 g/ha, Postemergence, scale 0 to 10 (0 no effect, 10 complete control)
[25] = Rate 125 g/ha, Postemergence, scale of 0 to 10 where 0 is no effect and 10 is complete control
[26] = Rate 250 g/ha, Postemergence, scale of 0 to 10 where 0 is no effect and 10 is complete control
[27] = Rate 500 g/ha, Postemergence, scale 0 to 10, 0 no effect, 10 complete control
[28] = Rate 62 g/ha, headed Pre-emergence (flood test species), scale 0 to 10 (0 no effect, 10 complete control)
[29] = Rate 125 g/ha, Pre-emergence, flood test species, scale 0 to 10 where 0 is no effect and 10 is complete control
[30] = Rate 250 g/ha, Pre-emergence, flood-test species, scale 0 to 10, 0 is no effect, 10 is complete control
[31] = Rate 500 g/ha, Pre-emergence, flood test species, scale 0 to 10 (0 no effect, 10 complete control)

Structure (SMILES): CC(C)C(C)n1c(=O)on(C(=O)N(c2ccc(F)cc2)C(C)C)c1=O (stereo not shown) [Compound 316]
- Bedstraw plant response rating ([1]; Preemergence, Rate 62 g/ha): 0
- Bedstraw plant response rating (0 to 10 scale) ([1]; Preemergence, Rate 125 g/ha): 0
- Bedstraw plant response rating ([1]; Preemergence, Rate 250 g/ha): 3
- Bedstraw plant response rating ([1]; Preemergence, Rate 500 g/ha): 6
- Bedstraw plant response rating ([1]; Rate 125 g/ha, Postemergence): 2
- Blackgrass plant response rating [2, 21]: 8
- Blackgrass plant response rating (0 to 10 scale) ([2]; Preemergence, Rate 125 g/ha): 10
- Blackgrass plant response rating [2, 22]: 10
- Blackgrass plant response rating [2, 23]: 10
- Blackgrass plant response rating [2, 24]: 0
- Blackgrass plant response rating [2, 25]: 1
- Plant response rating, Blackgrass [2, 26]: 4
- Blackgrass plant response rating [2, 27]: 7
- B. signalgrass plant response rating [3, 21]: 6
- B. signalgrass plant response rating (0 to 10 scale, 0 is no effect, 10 is complete control) ([3]; Preemergence, Rate 125 g/ha): 7
- B. signalgrass plant response rating [3, 22]: 9
- B. signalgrass plant response rating [3, 23]: 9
- B. signalgrass plant response rating [3, 24]: 0
- B. signalgrass plant response rating [3, 25]: 0
- Plant response rating, B. signalgrass [3, 26]: 0
- B. signalgrass plant response rating [3, 27]: 2
- Cocklebur plant response rating [4, 21]: 0
- Cocklebur plant response rating [4, 22]: 0
- Cocklebur plant response rating [4, 23]: 2
- Cocklebur plant response rating [4, 24]: 0
- Cocklebur plant response rating [4, 25]: 0
- Plant response rating, Cocklebur [4, 26]: 0
- Cocklebur plant response rating [4, 27]: 0
- Corn plant response rating [5, 21]: 0
- Corn plant response rating (0 to 10 scale) ([5]; Preemergence, Rate 125 g/ha): 0
- Corn plant response rating [5, 22]: 0
- Corn plant response rating [5, 23]: 5
- Corn plant response rating [5, 24]: 0
- Corn plant response rating [5, 25]: 0
- Plant response rating, Corn [5, 26]: 0
- Corn plant response rating [5, 27]: 0
- Crabgrass plant response rating [6, 21]: 6
- Crabgrass plant response rating (0 to 10 scale) ([6]; Preemergence, Rate 125 g/ha): 8
- Crabgrass plant response rating [6, 22]: 8
- Crabgrass plant response rating [6, 23]: 10
- Crabgrass plant response rating [6, 24]: 0
- Crabgrass plant response rating [6, 25]: 0
- Plant response rating, Crabgrass [6, 26]: 0
- Giant foxtail plant response rating [7, 21]: 9
- Giant foxtail plant response rating (0 to 10 scale) ([7]; Preemergence, Rate 125 g/ha): 10
- Giant foxtail plant response rating [7, 22]: 10
- Giant foxtail plant response rating [7, 23]: 10
- Giant foxtail plant response rating [7, 24]: 0
- Giant foxtail plant response rating [7, 25]: 0
- Plant response rating, Giant foxtail [7, 26]: 2
- Morningglory plant response rating [8, 21]: 0
- Morningglory plant response rating (0 to 10 scale) ([8]; Preemergence, Rate 125 g/ha): 0
- Morningglory plant response rating [8, 22]: 0
- Morningglory plant response rating [8, 23]: 0
- Morningglory plant response rating [8, 24]: 3
- Morningglory plant response rating [8, 25]: 4
- Plant response rating, Morningglory [8, 26]: 5
- Redroot pigweed plant response rating [9, 21]: 4
- Redroot pigweed plant response rating (0 to 10 scale) ([9]; Preemergence, Rate 125 g/ha): 6
- Redroot pigweed plant response rating [9, 22]: 10
- Redroot pigweed plant response rating [9, 23]: 10
- Redroot pigweed plant response rating [9, 24]: 2
- Redroot pigweed plant response rating [9, 25]: 2
- Plant response rating, Redroot pigweed [9, 26]: 3
- Rape plant response rating [10, 21]: 0
- Rape plant response rating (0 to 10 scale) ([10]; Preemergence, Rate 125 g/ha): 0
- Rape plant response rating [10, 22]: 4
- Rape plant response rating [10, 23]: 4
- Rape plant response rating [10, 24]: 0
- Rape plant response rating [10, 25]: 0
- Plant response rating, Rape [10, 26]: 1
- Soybean plant response rating [11, 21]: 0
- Soybean plant response rating (0 to 10 scale) ([11]; Preemergence, Rate 125 g/ha): 0
- Soybean plant response rating [11, 22]: 0
- Soybean plant response rating [11, 23]: 0
- Soybean plant response rating [11, 24]: 3
- Soybean plant response rating [11, 25]: 3
- Plant response rating, Soybean [11, 26]: 4
- Sugarbeets plant response rating [12, 21]: 0
- Sugarbeets plant response rating (0 to 10 scale) ([12]; Preemergence, Rate 125 g/ha): 0
- Sugarbeets plant response rating [12, 22]: 0
- Sugarbeets plant response rating [12, 23]: 4
- Sugarbeets plant response rating [12, 24]: 0
- Sugarbeets plant response rating [12, 25]: 0
- Plant response rating, Sugarbeets [12, 26]: 0
- Velvetleaf plant response rating [13, 21]: 0
- Velvetleaf plant response rating (0 to 10 scale) ([13]; Preemergence, Rate 125 g/ha): 2
- Velvetleaf plant response rating [13, 22]: 3
- Velvetleaf plant response rating [13, 23]: 6
- Velvetleaf plant response rating [13, 24]: 0
- Velvetleaf plant response rating [13, 25]: 0
- Plant response rating, Velvetleaf [13, 26]: 2
- Wheat plant response rating [14, 21]: 0
- Wheat plant response rating (0 to 10 scale) ([14]; Preemergence, Rate 125 g/ha): 0
- Wheat plant response rating [14, 22]: 2
- Wheat plant response rating [14, 23]: 2
- Wheat plant response rating [14, 24]: 0
- Wheat plant response rating [14, 25]: 0
- Plant response rating, Wheat [14, 26]: 2
- Wild oats plant response rating [15, 21]: 4
- Wild oats plant response rating (0 to 10 scale) ([15]; Preemergence, Rate 125 g/ha): 4
- Wild oats plant response rating [15, 22]: 6
- Wild oats plant response rating [15, 23]: 6
- Wild oats plant response rating [15, 24]: 0
- Wild oats plant response rating [15, 25]: 0
- Plant response rating, Wild oats [15, 26]: 2
- Nutsedge plant response rating [16, 21]: 0
- Nutsedge plant response rating (0 to 10 scale) ([16]; Preemergence, Rate 125 g/ha): 0
- Nutsedge plant response rating [16, 24]: 0
- Nutsedge plant response rating [16, 25]: 0
- Plant response rating, Nutsedge [16, 26]: 0
- Rice plant response rating [17, 28]: 0
- Rice plant response rating [17, 29]: 0
- Rice plant response rating [17, 30]: 1
- Rice plant response rating [17, 31]: 0
- S. Flatsedge plant response rating [18, 28]: 0
- S. Flatsedge plant response rating [18, 29]: 0
- S. Flatsedge plant response rating [18, 30]: 9
- S. Flatsedge plant response rating [18, 31]: 9
- Ducksalad plant response rating [19, 28]: 0
- Ducksalad plant response rating [19, 29]: 0
- Ducksalad plant response rating [19, 30]: 3
- Ducksalad plant response rating [19, 31]: 0
- Barnyardgrass plant response rating [20, 28]: 3
- Barnyardgrass plant response rating [20, 29]: 6
- Barnyardgrass plant response rating [20, 30]: 9
- Barnyardgrass plant response rating [20, 31]: 9
